Experimental data: the supplement of paper PMC10307832

Columns and labels:
Test in all cases: relative viability (nuclei count vs DMSO), 5 days (fraction); higher = more cells survive
[1] = compound: CCN1CCC(CC1)N2C=C(N=N2)CNC3=CC4=C(C(=CN=C4C(=C3)Cl)C#N)NC5=CC(=C(C=C5)F)Cl [KIN001-266] + CC(=O)Nc1cccc(-n2c(=O)n(C3CC3)c(=O)c3c(Nc4ccc(I)cc4F)n(C)c(=O)c(C)c32)c1 [Trametinib] (partner 0.02 µM)
Procedure, shortened: (§1)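 Nuclei were stained with Hoechst during a one-step fixation (final 0.05% Triton X-100, 1% formaldehyde, 1 ug/ml Hoechst) carried out 5 days after dosing, then counted on 4× images. The cells, lung cancer lines in 1536-well plates, had been dosed by pin tool the day after seeding with one drug alone or a fixed anchor-drug dose plus five library-drug doses (not always all listed) in √10 steps. Relative viability is the nuclei count in treated wells divided by that in vehicle wells, and each value is the median of duplicate plates.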

[2] = compound: CCN1CCC(CC1)N2C=C(N=N2)CNC3=CC4=C(C(=CN=C4C(=C3)Cl)C#N)NC5=CC(=C(C=C5)F)Cl [KIN001-266] + CS(=O)(=O)N1CCN(Cc2cc3nc(-c4cccc5[nH]ncc45)nc(N4CCOCC4)c3s2)CC1 [Pictilisib] (partner 1 µM)
Procedure, shortened: as §1

[3] = compound: CCN1CCC(CC1)N2C=C(N=N2)CNC3=CC4=C(C(=CN=C4C(=C3)Cl)C#N)NC5=CC(=C(C=C5)F)Cl [KIN001-266] + CC(C)C[C@H](NC(=O)[C@H](Cc1ccccc1)NC(=O)c1cnccn1)B(O)O [Bortezomib] (partner 0.002 µM)
Procedure, shortened: as §1

[4] = compound: CCN1CCC(CC1)N2C=C(N=N2)CNC3=CC4=C(C(=CN=C4C(=C3)Cl)C#N)NC5=CC(=C(C=C5)F)Cl [KIN001-266] + O=C(c1cc(Cc2n[nH]c(=O)c3ccccc23)ccc1F)N1CCN(C(=O)C2CC2)CC1 [Olaparib] (partner 8 µM)
Procedure, shortened: as §1

Cell Line	relative viability ([1]; first compound 0.08 µM)	relative viability ([1]; first compound 0.253 µM)	relative viability ([1]; first compound 0.8 µM)	relative viability ([1]; first compound 2.53 µM)	relative viability ([1]; first compound 8 µM)	relative viability ([2]; first compound 0.08 µM)	relative viability ([2]; first compound 0.253 µM)	relative viability ([2]; first compound 0.8 µM)	relative viability ([2]; first compound 2.53 µM)	relative viability ([2]; first compound 8 µM)	relative viability ([3]; first compound 0.08 µM)	relative viability ([3]; first compound 0.253 µM)	relative viability ([3]; first compound 0.8 µM)	relative viability ([3]; first compound 2.53 µM)	relative viability ([3]; first compound 8 µM)	relative viability ([4]; first compound 0.08 µM)	relative viability ([4]; first compound 0.253 µM)	relative viability ([4]; first compound 0.8 µM)	relative viability ([4]; first compound 2.53 µM)	relative viability ([4]; first compound 8 µM)
HCC-78	0.747	0.705	0.667	0.838	0.753	0.234	0.193	0.174	0.253	0.259	0.57	0.261	0.464	0.495	0.616	0.832	0.793	0.767	0.841	0.677
HCC-366	0.446	0.468	0.32	0.334	0.277	0.132	0.114	0.107	0.154	0.156	1.04	1.06	0.996	0.998	1.01	0.403	0.339	0.271	0.3	0.227
HCC-827	0.489	0.577	0.468	0.545	0.49	0.855	1.09	–	0.785	0.837	1.09	1.03	–	1.07	1.09	0.577	0.602	0.557	0.585	0.528
HOP-62	0.391	0.387	0.379	0.311	0.293	0.592	0.813	0.728	0.372	0.506	0.563	0.565	0.575	0.779	1.07	0.5	0.475	0.381	0.46	0.319
LC-2-ad	0.924	0.938	0.918	0.897	0.931	0.582	0.336	0.466	0.317	0.543	0.954	0.948	1.02	1.03	0.956	0.706	0.727	0.664	0.693	0.635
LCLC-97TM1	0.18	0.185	0.199	–	0.164	0.198	0.264	0.192	0.16	0.215	0.679	0.595	0.489	0.731	0.337	0.302	0.295	0.406	–	0.167
LCLC-103H	0.715	0.73	0.592	0.645	0.668	0.618	0.693	0.71	0.676	0.605	1.18	1.15	1.08	1.08	0.986	0.727	0.762	0.722	0.742	0.756
LOU-NH91	0.83	0.753	0.698	0.727	0.748	0.542	0.533	0.443	0.469	0.505	0.499	0.497	0.428	0.513	0.443	0.909	0.903	0.761	0.842	0.757
LU99A	0.546	0.489	0.494	0.552	0.458	0.325	0.338	0.319	0.3	0.284	1.31	1.17	1.11	1.02	0.982	0.271	0.283	0.2	0.213	0.164
LXF-289	0.678	0.683	0.683	0.679	0.708	0.791	0.786	0.755	0.767	0.799	0.954	0.987	0.95	0.972	1.03	1.01	1.02	1.03	1.01	1.03
NCI-H23	0.435	0.419	0.484	0.356	0.377	0.494	0.557	0.458	0.351	0.469	1.14	1.1	1.04	0.916	0.642	0.334	0.303	0.321	0.309	0.251
NCI-H322M	0.487	0.515	0.5	0.479	0.497	0.593	0.713	0.451	0.456	0.484	1.16	1.43	1.34	1.23	1.18	0.802	0.737	0.764	0.72	0.698
NCI-H441	0.455	0.525	0.489	0.471	0.399	0.559	0.381	0.481	0.459	0.415	0.603	0.811	0.478	0.457	0.554	0.504	0.645	0.562	0.455	0.444
NCI-H460	0.204	0.225	0.121	0.135	0.108	0.5	0.339	0.308	0.355	0.302	1.01	1.18	1.16	0.988	1.06	0.418	0.447	0.466	0.308	0.409
NCI-H520	0.727	0.628	0.561	0.624	0.645	0.311	0.242	0.289	0.237	0.286	0.633	0.677	0.535	0.544	0.675	0.339	0.299	0.374	0.267	0.239
NCI-H596	0.742	0.698	0.851	0.778	0.673	0.407	0.401	0.385	0.4	0.38	0.919	1.17	1.05	1.04	0.947	0.744	0.723	0.662	0.712	0.756
